Earlier results as cited in PMC9610729, “Anticholinesterase Activity of Selected Medicinal Plants from Navarra Region of Spain and a Detailed Phytochemical Investigation of Origanum vulgare L. ssp. vulgare” (Molecules, 2022).
Like-named read-outs stand apart in the source and are kept apart here.

Key:
[1] = test system: AChE; set-up: method as in PMID 35745206
[2] = test system: AChE

Row | SMILES | AChE inhibition [1] | AChE inhibition [2]
1 | COc1cc(C(=O)O)cc(OC)c1O [Compound 7, Syringic acid] | high inhibition percentage | –
2 | O=c1c(O)c(-c2ccc(O)cc2)oc2cc(O)cc(O)c12 [kaempferol] | – | efficient AChE inhibitors
3 | O=c1cc(-c2ccc(O)c(O)c2)oc2cc(O)cc(O)c12 [luteolin] | – | to a lesser extent
4 | COC(=O)c1cc(OC)c(O)c(OC)c1 [methyl syringinate] | best properties | –
5 | O=c1c(O)c(-c2ccc(O)c(O)c2)oc2cc(O)cc(O)c12 [quercetin] | – | efficient AChE inhibitors
